Results on 1 compound are retold here after ChEMBL document CHEMBL1150964, “Munchiwarin, a prenylated chalcone from crotalaria trifoliastrum” (J Nat Prod, 1998).

≈ marks a conversion by molar mass, not a printed value. Calls of active or inactive are those of the source. The rule behind the calls is not given here.

For assay [1], the system named is KB. The assay is described as follows: Cytotoxicity against human KB cells. The format is functional, cell-based.
Assay [2] concerns KB. Briefly: Cytotoxicity against drug-resistant human KB cells in presence of vinblastine. The format is functional, cell-based.
Assay [3] relates to KB. Briefly: Cytotoxicity against drug-resistant human KB cells in absence of vinblastine. In kind it is functional, cell-based.
The next assay relates to Col2. Briefly: Cytotoxicity against human Col2 cells. The format is functional, cell-based.
The nature of assay [4]: Cytotoxicity against human BC1 cells. The format is functional, cell-based.
The target in assay [5] is Human immunodeficiency virus type 1 reverse transcriptase (Human immunodeficiency virus 1) (UniProt Q72547). The assay is described as follows: Inhibition of HIV1 reverse transcriptase.

By IC50 is commonly meant the concentration at which inhibition is half-maximal. In the case of `CC(C)=CCC1=C/C(=C(O)\C=C\c2ccc(O)cc2)C(=O)C(CC=C(C)C)(CC=C(C)C)C1=O` [MUNCHIWARIN], the IC50 in the assay on KB [1] was determined as 11 µg/mL (≈ 23.9 µM); in the assay with KB [2] it was 13 µg/mL; in the assay with KB [3], 14 µg/mL (≈ 30.4 µM); in the assay with Col2, 9 µg/mL (≈ 19.5 µM); in assay [4] it was 9 µg/mL (≈ 19.5 µM). The outcome in assay [5] was inactive.
